Test results reported in patent publication EP1247803A2, “Indolinone compounds suitable for modulation of protein kinases” (Sugen, Inc., priority 1996, dated 1998).

Biological target: T1, EGFR (Homo sapiens, UniProt P00533)
T1 construct: Add 7 ug A431 cell lysate per well (EGFR source); endogenous in cells; host or cells: A431
Assay: EGFR ELISA assay (in vitro kinase activity, EGFR captured from A431 cell lysate)
Type: biochemical
Parameters: concentration or dose not given beside the values
Method in brief: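 EGFR from A431 lysate was captured on anti-EGFR antibody-coated plates and preincubated with compounds for 30 min. Autophosphorylation ran 5 min with 3 uM ATP and 5 mM MnCl2 (final), stopped with 20 mM EDTA. Phosphotyrosine was detected by anti-pTyr ELISA with ABTS/H2O2, read at 410 nm.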

T1 sequence (P00533 25-1210): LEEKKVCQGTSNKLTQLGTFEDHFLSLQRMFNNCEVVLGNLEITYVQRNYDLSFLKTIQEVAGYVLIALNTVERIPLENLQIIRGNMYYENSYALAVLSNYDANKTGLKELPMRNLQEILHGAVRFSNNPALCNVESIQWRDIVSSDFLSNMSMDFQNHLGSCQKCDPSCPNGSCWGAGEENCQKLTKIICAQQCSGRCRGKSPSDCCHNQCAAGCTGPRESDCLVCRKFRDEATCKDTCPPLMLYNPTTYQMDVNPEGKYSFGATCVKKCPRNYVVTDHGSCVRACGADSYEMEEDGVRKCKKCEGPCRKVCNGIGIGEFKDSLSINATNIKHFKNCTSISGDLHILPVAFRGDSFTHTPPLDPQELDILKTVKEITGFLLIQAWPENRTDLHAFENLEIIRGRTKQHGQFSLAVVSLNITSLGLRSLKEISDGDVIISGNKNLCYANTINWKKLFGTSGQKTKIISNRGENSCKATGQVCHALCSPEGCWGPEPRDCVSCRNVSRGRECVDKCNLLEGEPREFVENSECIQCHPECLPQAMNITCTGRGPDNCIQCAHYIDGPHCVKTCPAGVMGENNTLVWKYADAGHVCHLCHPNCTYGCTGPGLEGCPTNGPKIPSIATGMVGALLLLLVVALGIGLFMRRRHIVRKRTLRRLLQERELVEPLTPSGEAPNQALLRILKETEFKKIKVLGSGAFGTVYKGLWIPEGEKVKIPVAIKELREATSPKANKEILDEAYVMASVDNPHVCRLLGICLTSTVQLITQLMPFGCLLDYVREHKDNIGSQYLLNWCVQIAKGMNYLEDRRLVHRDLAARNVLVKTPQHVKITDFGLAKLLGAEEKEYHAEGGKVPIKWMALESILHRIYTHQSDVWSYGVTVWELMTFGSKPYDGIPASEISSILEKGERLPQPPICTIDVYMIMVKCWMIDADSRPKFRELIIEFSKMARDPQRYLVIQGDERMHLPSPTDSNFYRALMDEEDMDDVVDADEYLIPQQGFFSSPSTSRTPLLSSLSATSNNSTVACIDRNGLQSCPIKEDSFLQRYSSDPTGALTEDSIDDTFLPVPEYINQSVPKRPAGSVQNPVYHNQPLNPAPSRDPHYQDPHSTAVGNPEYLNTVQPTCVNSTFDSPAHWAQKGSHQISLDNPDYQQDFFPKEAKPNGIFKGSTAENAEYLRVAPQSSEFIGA

| Structure (SMILES) | Biochem EGFR %Inhibition [%] |
| --- | --- |
| CCc1ccc(C=C2C(=O)Nc3ccc(I)cc32)o1 [10724/B10] | 76.2 |
| CNS(=O)(=O)c1ccc2c(c1)C(=Cc1cc3c4c(c1O)CCCN4CCC3)C(=O)N2 [10724/D05] | -8.4 |
